Measured values from ChEMBL document CHEMBL2062405, “Alkaloids from the root of Isatis indigotica” (J Nat Prod, 2012).
The source made the active and inactive calls. The calls are words filed in the database; no cut-off is given here.

Legend:
MCF7 = assay: Cytotoxicity against human MCF7 cells at 10 uM after 96 hrs by MTT assay; format: functional, cell-based
Human alphaherpesvirus 1 = assay: Antiviral activity against Herpes simplex virus 1 at 10 uM; format: functional, organism-based
KETR3 = assay: Cytotoxicity against human Ketr3 cells at 10 uM after 96 hrs by MTT assay; format: functional, cell-based
A549 = assay: Cytotoxicity against human A549 cells at 10 uM after 96 hrs by MTT assay; format: functional, cell-based
Coxsackievirus B3 = assay: Antiviral activity against Coxsackievirus B3 assessed as inhibition of viral replication; format: functional, organism-based; settings: Enterovirus B
BGC-823 = assay: Cytotoxicity against human BGC823 cells at 10 uM after 96 hrs by MTT assay; format: functional, cell-based
Bel-7402 = assay: Cytotoxicity against human Bel7402 cells at 10 uM after 96 hrs by MTT assay; format: functional, cell-based
HCT-8 = assay: Cytotoxicity against human HCT8 cells at 10 uM after 96 hrs by MTT assay; format: functional, cell-based
[1] = tested on: Human immunodeficiency virus 1; assay: Antiviral activity against HIV1 infected in 293T cells cotransfected with VSV-G at 10 uM after 48 hrs by ELISA; format: functional, organism-based
Influenza A virus = assay: Antiviral activity against influenza A virus A/Hanfang/359/95 (H3N2) assessed as inhibition of virus-induced cytopathic effect in cell-based assay; format: functional, organism-based

Structure (SMILES)	Activity (MCF7)	Activity (Human alphaherpesvirus 1)	Activity (KETR3)	Activity (A549)	IC50 (Coxsackievirus B3) [µM]	Activity (BGC-823)	Activity (Bel-7402)	Activity (HCT-8)	Activity [1]	IC50 (Influenza A virus) [µM]
NC(=O)CC1C(=O)Nc2ccccc21 (racemic)	inactive	inactive	inactive	inactive	6.87	inactive	inactive	inactive	inactive	
Cc1cc(CCCOc2c(C)cc(-c3noc(C(F)(F)F)n3)cc2C)on1 [PLECONARIL]					0.41					
COc1ccc(C(C#N)c2c[nH]c3ccccc23)c2[nH]cc(CC#N)c12 (single isomer, unassigned)	inactive	inactive	inactive	inactive		inactive	inactive	inactive	inactive	3.7
COc1ccc([C@@H](C)c2ccc(O)cc2)c2[nH]cc(CC#N)c12	inactive	inactive	inactive	inactive		inactive	inactive	inactive	inactive	3.7
